Measurements: ChEMBL document CHEMBL1141677, “Synthesis and structure-antibacterial activity of triazolyl oxazolidinones containing long chain acyl moiety” (2008)
Converted amounts (≈) assume the structure as drawn.

Key:
Type in all cases: functional
Haemophilus influenzae = assay: Antibacterial activity against Haemophilus influenzae clinical isolate after 18 hrs by agar dilution method
Enterococcus [1] = assay: Antibacterial activity against vancomycin-sensitive Enterococcus after 18 hrs by agar dilution method
Staphylococcus aureus [2] = assay: Antibacterial activity against Staphylococcus aureus ATCC 25923 after 18 hrs by agar dilution method; conditions: for MIC: Staphylococcus aureus, ATCC 25923, 18 h
Staphylococcus [3] = assay: Antibacterial activity against methicillin-susceptible coagulase-negative Staphylococcus clinical isolate after 18 hrs by agar dilution method
Streptococcus pneumoniae = assay: Antibacterial activity against penicillin-resistant Streptococcus pneumoniae after 18 hrs by agar dilution method
Moraxella catarrhalis = assay: Antibacterial activity against Moraxella catarrhalis clinical isolate after 18 hrs by agar dilution method
Staphylococcus aureus [4] = assay: Antibacterial activity against methicillin-resistant Staphylococcus aureus clinical isolate after 18 hrs by agar dilution method; conditions: for MIC: Staphylococcus aureus, 18 h
Staphylococcus aureus [5] = assay: Antibacterial activity against Staphylococcus aureus ATCC 25923 after 18 hrs by agar dilution method in presence of 50% human plasma; conditions: ATCC 25923, Plasma
Escherichia coli = assay: Antibacterial activity against Escherichia coli ATCC 25922 after 18 hrs by agar dilution method; conditions: ATCC 25922, 18 h
Staphylococcus [6] = assay: Antibacterial activity against methicillin-resistant coagulase-negative Staphylococcus clinical isolate after 18 hrs by agar dilution method
Staphylococcus aureus [7] = assay: Antibacterial activity against methicillin-susceptible Staphylococcus aureus clinical isolate after 18 hrs by agar dilution method
Enterococcus [8] = assay: Antibacterial activity against vancomycin-resistant Enterococcus after 18 hrs by agar dilution method

| Structure (SMILES) | MIC (Haemophilus influenzae) [µg/mL] | MIC (Enterococcus [1]) [µg/mL] | MIC (Staphylococcus aureus [2]) [µg/mL] | MIC (Staphylococcus [3]) [µg/mL] | MIC (Streptococcus pneumoniae) [µg/mL] | MIC (Moraxella catarrhalis) [µg/mL] | MIC (Staphylococcus aureus [4]) [µg/mL] | MIC (Staphylococcus aureus [5]) [µg/mL] | MIC (Escherichia coli) [µg/mL] | MIC (Staphylococcus [6]) [µg/mL] | MIC (Staphylococcus aureus [7]) [µg/mL] | MIC (Enterococcus [8]) [µg/mL] | -logMIC (Staphylococcus aureus [2]) | -logMIC (Staphylococcus aureus [4]) |
| --- | --- | --- | --- | --- | --- | --- | --- | --- | --- | --- | --- | --- | --- | --- |
| O=C1O[C@@H](Cn2ccnn2)CN1c1ccc(N2CCOCC2)c(F)c1 | ≥ 8 | 0.5 (≈ 1.44 µM) | 1 (≈ 2.88 µM) | 0.5 (≈ 1.44 µM) | 0.5 (≈ 1.44 µM) | ≥ 8 | 0.5 (≈ 1.44 µM) | 1 | ≥ 8 | 0.5 (≈ 1.44 µM) | 0.5 (≈ 1.44 µM) | 1 (≈ 2.88 µM) |  |  |
| CCCCCCCCCCC(=O)N1CCN(c2ccc(N3C[C@H](Cn4ccnn4)OC3=O)cc2F)CC1 | ≥ 8 | > 16 | > 16 | > 16 | > 16 | ≥ 8 |  | > 16 | ≥ 8 |  | > 16 |  | 1.51 |  |
| O=C(CC1CC2CCC1C2)N1CCN(c2ccc(N3C[C@H](Cn4ccnn4)OC3=O)cc2F)CC1 (some centres undefined) | ≥ 8 | 2 (≈ 4.14 µM) | 4 (≈ 8.29 µM) | 2 (≈ 4.14 µM) | 4 (≈ 8.29 µM) | ≥ 8 | 2 (≈ 4.14 µM) | > 16 | ≥ 8 | 2 (≈ 4.14 µM) | 2 (≈ 4.14 µM) | 4 (≈ 8.29 µM) | 2.08 | 2.38 |
| CCC(=O)N1CCN(c2ccc(N3C[C@H](Cn4ccnn4)OC3=O)cc2F)CC1 | ≥ 8 | 0.5 (≈ 1.24 µM) | 1 (≈ 2.48 µM) | 0.12 (≈ 0.298 µM) | 1 (≈ 2.48 µM) | ≥ 8 | 1 (≈ 2.48 µM) | 1 | ≥ 8 | 1 (≈ 2.48 µM) | 1 (≈ 2.48 µM) | 1 (≈ 2.48 µM) | 2.6 | 2.6 |
| CC(=O)N1CCN(c2ccc(N3C[C@H](Cn4ccnn4)OC3=O)cc2F)CC1 | ≥ 8 | 0.5 (≈ 1.29 µM) | 1 (≈ 2.57 µM) | 0.25 (≈ 0.644 µM) | 0.5 (≈ 1.29 µM) | ≥ 8 | 0.25 (≈ 0.644 µM) | 1 | ≥ 8 | 0.25 (≈ 0.644 µM) | 0.5 (≈ 1.29 µM) | 0.25 (≈ 0.644 µM) | 2.59 | 3.19 |
| CCCCCCCC(=O)N1CCN(c2ccc(N3C[C@H](Cn4ccnn4)OC3=O)cc2F)CC1 | ≥ 8 | 4 (≈ 8.46 µM) | 8 (≈ 16.9 µM) | 2 (≈ 4.23 µM) | > 16 | ≥ 8 | 2 (≈ 4.23 µM) | > 16 | ≥ 8 | 2 (≈ 4.23 µM) | 4 (≈ 8.46 µM) | 4 (≈ 8.46 µM) | 2.07 | 2.37 |
| CCCCCCC(=O)N1CCN(c2ccc(N3C[C@H](Cn4ccnn4)OC3=O)cc2F)CC1 | ≥ 8 | 4 (≈ 8.72 µM) | 4 (≈ 8.72 µM) | 1 (≈ 2.18 µM) | 4 (≈ 8.72 µM) | ≥ 8 | 2 (≈ 4.36 µM) | > 16 | ≥ 8 | 2 (≈ 4.36 µM) | 2 (≈ 4.36 µM) | 4 (≈ 8.72 µM) | 2.06 | 2.36 |
| CC(C)C(=O)N1CCN(c2ccc(N3C[C@H](Cn4ccnn4)OC3=O)cc2F)CC1 | ≥ 8 | 1 (≈ 2.4 µM) | 2 (≈ 4.8 µM) | 1 (≈ 2.4 µM) | 0.5 (≈ 1.2 µM) | ≥ 8 | 1 (≈ 2.4 µM) | 2 | ≥ 8 | 1 (≈ 2.4 µM) | 1 (≈ 2.4 µM) | 1 (≈ 2.4 µM) | 2.32 | 2.62 |
| O=C(C1CCCCC1)N1CCN(c2ccc(N3C[C@H](Cn4ccnn4)OC3=O)cc2F)CC1 | ≥ 8 | 1 (≈ 2.19 µM) | 4 (≈ 8.76 µM) | 1 (≈ 2.19 µM) | 0.5 (≈ 1.1 µM) | ≥ 8 | 1 (≈ 2.19 µM) | 4 | ≥ 8 | 1 (≈ 2.19 µM) | 1 (≈ 2.19 µM) | 1 (≈ 2.19 µM) | 2.06 | 2.66 |
| CCCCCCCCCCCCCCCCCC(=O)N1CCN(c2ccc(N3C[C@H](Cn4ccnn4)OC3=O)cc2F)CC1 | ≥ 8 | > 16 | > 16 | > 16 | > 16 | ≥ 8 |  | > 16 | ≥ 8 |  | > 16 |  | 1.58 |  |
| CCCCCCCCCCCCCCCC(=O)N1CCN(c2ccc(N3C[C@H](Cn4ccnn4)OC3=O)cc2F)CC1 | ≥ 8 | > 16 | > 16 | > 16 | > 16 | ≥ 8 |  | > 16 | ≥ 8 |  | > 16 |  | 1.56 |  |
| CCCCCCCCCC(=O)N1CCN(c2ccc(N3C[C@H](Cn4ccnn4)OC3=O)cc2F)CC1 | ≥ 8 | > 16 | > 16 | > 16 | > 16 | ≥ 8 |  | > 16 | ≥ 8 |  | > 16 |  | 1.5 |  |
| O=C(C1CCCC1)N1CCN(c2ccc(N3C[C@H](Cn4ccnn4)OC3=O)cc2F)CC1 | ≥ 8 | 1 (≈ 2.26 µM) | 2 (≈ 4.52 µM) | 1 (≈ 2.26 µM) | 1 (≈ 2.26 µM) | ≥ 8 | 1 (≈ 2.26 µM) | 4 | ≥ 8 | 1 (≈ 2.26 µM) | 1 (≈ 2.26 µM) | 1 (≈ 2.26 µM) | 2.34 | 2.65 |
| CCCCCCCCC(=O)N1CCN(c2ccc(N3C[C@H](Cn4ccnn4)OC3=O)cc2F)CC1 | ≥ 8 | 8 (≈ 16.4 µM) | > 16 | 4 (≈ 8.22 µM) | > 16 | ≥ 8 | 4 (≈ 8.22 µM) | > 16 | ≥ 8 | 4 (≈ 8.22 µM) | 8 (≈ 16.4 µM) | 8 (≈ 16.4 µM) | 1.78 | 2.09 |
| CCCCCC(=O)N1CCN(c2ccc(N3C[C@H](Cn4ccnn4)OC3=O)cc2F)CC1 | ≥ 8 | 4 (≈ 9 µM) | 4 (≈ 9 µM) | 1 (≈ 2.25 µM) | 2 (≈ 4.5 µM) | ≥ 8 | 2 (≈ 4.5 µM) | > 16 | ≥ 8 | 1 (≈ 2.25 µM) | 4 (≈ 9 µM) | 4 (≈ 9 µM) | 2.05 | 2.35 |
| CCCCCCCCCCCCCC(=O)N1CCN(c2ccc(N3C[C@H](Cn4ccnn4)OC3=O)cc2F)CC1 | ≥ 8 | > 16 | > 16 | > 16 | > 16 | ≥ 8 |  | > 16 | ≥ 8 |  | > 16 |  | 1.54 |  |
| CC(=O)NC[C@H]1CN(c2ccc(N3CCOCC3)c(F)c2)C(=O)O1 [LINEZOLID] | ≥ 8 | 0.5 (≈ 1.48 µM) |  | 0.25 (≈ 0.741 µM) |  | ≥ 8 | 0.5 (≈ 1.48 µM) |  | ≥ 8 | 1 (≈ 2.96 µM) | 1 (≈ 2.96 µM) | 2 (≈ 5.93 µM) |  |  |
| CN[C@H](CC(C)C)C(=O)N[C@H]1C(=O)N[C@@H](CC(N)=O)C(=O)N[C@H]2C(=O)N[C@H]3C(=O)N[C@H](C(=O)N[C@H](C(=O)O)c4cc(O)cc(O)c4-c4cc3ccc4O)[C@H](O)c3ccc(c(Cl)c3)Oc3cc2cc(c3O[C@@H]2O[C@H](CO)[C@@H](O)[C@H](O)[C@H]2O[C@H]2C[C@](C)(N)[C@H](O)[C@H](C)O2)Oc2ccc(cc2Cl)[C@H]1O [VANCOMYCIN] | ≥ 8 | 0.25 (≈ 0.173 µM) |  | 1 (≈ 0.69 µM) | 0.5 (≈ 0.345 µM) | ≥ 8 |  |  | ≥ 8 | 1 (≈ 0.69 µM) |  | > 64 |  |  |
